Reference: patent US6355638B1, “Pyrazolo[1,5-d][1,2,4] triazines for enhancing cognition” (Merck Sharp & Dohme Ltd., priority 1999, dated 2002)

Assays:
[1] = reported in Psychobiology, 21:101-108; cited from earlier work
[2] = background statement; cited from earlier work

Row | Structure (SMILES) | melting point | spatial learning in the Morris watermaze [1] | proconvulsant activity [2]
1 | Cc1cc(-c2nncc3c(C(C)(C)C)c(OCc4ncn(C)n4)nn23)no1 | 161 to 164 °C |  | 
2 | Cc1cc(-c2nncc3c(-c4ccco4)c(OCc4ncnn4C)nn23)no1 | 226 to 228 °C |  | 
3 | Cc1cc(-c2nncc3c(C(C)(C)C)c(OCc4ccncc4)nn23)no1 | 119 to 121 °C |  | 
4 | COC(=O)c1cc2c(cn1)[nH]c1ccccc12 [β-CCM] |  | enhanced spatial learning | proconvulsant
5 | Cc1cc(-c2nncc3c(-c4ccccc4)c(OCc4ncn(C)n4)nn23)no1 | 194 to 196 °C |  | 
6 | Cc1cc(-c2nncc3c(Br)c(OCc4ncnn4C)nn23)no1 | 239 to 241 °C |  | 
7 | Cc1cc(-c2nncc3c(C(C)(C)C)c(OCc4ccccn4)nn23)no1 | 175 to 178 °C |  | 
8 | Cc1cc(-c2nncc3c(C(C)(C)C)c(OCc4cccnc4)nn23)no1 | 139 to 141 °C |  | 
